# Test results taken from PubChem BioAssay AID493250 (Broad Institute, 2011).
# Active and inactive are the calls of the source.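 The calls were made as follows: active = signal decrease with fitted half-maximal dose at or below ten times the highest valid tested dose; inconclusive = poor fit, or flat fit at 30 to 70% inhibition; inactive = the rest.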
# Target: Zinc finger protein mex-5 (Caenorhabditis elegans) (UniProt Q9XUB2)
# Test: inhibitors of MEX-5 RNA binding, dose response, biochemical, fluorescence polarization, C. elegans, cherry-picked, round 3 (AID 493250)
# Details: purified MEX-5-MBP, FITC-TCR2 RNA fluorescence polarization
# Zinc finger protein mex-5 (Caenorhabditis elegans), sequence (Q9XUB2 whole entry, looked up): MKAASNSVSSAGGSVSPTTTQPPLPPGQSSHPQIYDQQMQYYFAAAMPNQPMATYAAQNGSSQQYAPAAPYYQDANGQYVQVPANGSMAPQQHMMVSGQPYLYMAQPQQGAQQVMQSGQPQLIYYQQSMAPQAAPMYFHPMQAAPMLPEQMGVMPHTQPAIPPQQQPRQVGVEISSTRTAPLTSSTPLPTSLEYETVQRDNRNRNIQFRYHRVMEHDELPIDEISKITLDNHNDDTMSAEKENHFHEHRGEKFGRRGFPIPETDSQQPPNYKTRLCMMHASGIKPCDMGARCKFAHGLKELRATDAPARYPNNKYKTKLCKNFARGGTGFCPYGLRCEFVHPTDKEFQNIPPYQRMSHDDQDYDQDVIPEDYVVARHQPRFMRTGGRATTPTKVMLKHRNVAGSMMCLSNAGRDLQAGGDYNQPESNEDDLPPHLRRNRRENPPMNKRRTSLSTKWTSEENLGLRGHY
row,SMILES,AC50
1,OCCCc1nc2n(n1)C(c1ccccc1Cl)C=C(c1cccs1)N2 (stereo not given),10.1 µM
2,Cc1ccc2c(c1)c1nc3ccccc3nc1n2C,6.78 µM
3,Nc1nc(Cl)nc2ccc(Br)cc12,> 10 µM (inactive)
4,O=C1C(Cl)=C(NC2CCCCC2)C(=O)N1c1ccc(Cl)cc1,> 10 µM (inactive)
5,CCOc1cc(/C=C2\CCCc3c2nc2ccccc2c3C(=O)O)ccc1OC,0.906 µM
6,CCCC1=NN2C(=N)/C(=C\c3ccc(SCc4ccco4)o3)C(=O)N=C2S1,0.98 µM
7,Cc1ccc(C(=O)O)cc1-c1ccc(/C=C2\SC(=O)N(CC(=O)Nc3ccccc3)C2=O)o1,2.74 µM

# Same assay, conditions: purified MEX-5-MBP, FITC-TCR2 RNA fluorescence polarization; at 10 µM (top of the series)
row,SMILES,"activity change, negative = inhibition"
1,Brc1ccc(-c2cn3nc4c(nc3n2)CCCC4)cc1,inactive
2,CC(=O)NNc1ncnc2ccccc12,inactive
3,NC1=NC(=O)/C(=C\c2ccc(O)c([N+](=O)[O-])c2)S1,inactive
4,CCC(COC(C)=O)Nc1nc2c([nH]1)c(=O)n(C)c(=O)n2C (stereo not given),inactive
5,N#Cc1cc2c(=O)n3ccccc3nc2n(CCCN2CCOCC2)c1=O,inactive
6,COc1ccc(C(=O)NNC(=O)c2ccc3ccccc3c2O)cc1,inactive
7,N=C1C(c2nc3ccccc3[nH]2)=C(O)CN1c1ccccc1,inactive
8,CC1CN(Cc2c(O)ccc3c2oc(=O)c2ccccc23)CC(C)O1 (stereo not given),inactive
9,CCn1c(C)nc2c1C(=O)c1ccccc1C2=O,inactive
10,COc1cc(/C=N/NC(=O)c2ccc(=O)[nH]n2)ccc1O,inactive
11,O=C(O)CSc1ncnc2nc[nH]c12,inactive
12,O=C(N/N=C/c1cccnc1)c1ccc(O)cc1,inactive
13,COc1cccc(NC(=S)NNC(=O)C(C)n2nc(C)c([N+](=O)[O-])c2C)c1 (stereo not given),inactive
14,COc1ccc(C[C@@H]2c3cc(O)c(OC)cc3CCN2C)cc1O,inactive
15,Cn1c(CNC(=O)c2ccc(F)cc2)cc2ccccc21,inactive
16,CCCNc1nc2ccccc2n2c(C)nnc12,inactive
17,COc1ccccc1-c1cn[nH]c1-c1ccc(O)cc1O,inactive
18,O=C(O)CCSc1nc2ccccc2n1Cc1ccccc1,inactive
19,Cc1ccc(C)c(NC(=O)CCC(=O)NNC(=S)Nc2ccccc2)c1,inactive
20,COC(=O)/C(C#N)=C/c1c(-c2ccccc2)nc2n1CCS2,inactive
21,FC(F)(F)c1ccc(Cl)c(-n2c(-c3cc(-c4ccco4)[nH]n3)n[nH]c2=S)c1,inactive

row,SMILES,"activity change, negative = inhibition"
1,O=C(O)c1ccccc1N=Nc1c(O)[nH]c2ccc([N+](=O)[O-])cc12,inactive
2,CNC(=O)c1c(NC(=O)c2nc3ccccc3s2)sc2c1CCC2,inactive
3,C=CCn1c(O)c(N=NC(=O)CNC(=O)/C=C/c2ccco2)c2ccccc21,inactive
4,Cc1ccc(C(=O)N/C(=C\c2ccc(-c3cccc([N+](=O)[O-])c3)o2)C(=O)NCCCN(C)C)cc1,inactive
5,CC(C)CNC(=O)c1ccccc1Oc1ccccc1,inactive
6,COC(=O)CCC(=O)NC(=S)Nc1sc(C)c(C)c1C(N)=O,inactive
7,CC(=O)CCS(=O)(=O)c1ccc(Oc2ccc(S(=O)(=O)CCC(C)=O)cc2)cc1,inactive
8,Cn1nc(C(=O)NNC(=O)c2ccc(Cl)cc2)ccc1=O,inactive
9,CC(C)=CCc1c(O)cc(O)c2c(=O)c(O[C@@H]3O[C@@H](C)[C@H](O)[C@@H](O)[C@H]3O)c(-c3ccc(O)cc3)oc12,inactive
10,Cc1ccc2c(c1)-c1ccccc1S(=O)(=O)N2,inactive
11,O=c1c(OC2OC(CO)C(O)C(O)C2O)c(-c2ccc(O)c(O)c2)oc2cc(O)cc(O)c12 (stereo not given),inactive
12,CCOC(=O)c1cnc2c(N=Nc3ccccc3)c(N)nn2c1N,inactive
13,O=C(N/N=C/c1c(O)n(Cc2ccco2)c(=O)[nH]c1=O)c1ccccc1,inactive
14,CSc1ccccc1N=Cc1nc(-c2ccccc2)oc1O,inactive
15,COc1ccc(C2c3sc(=O)[nH]c3SCC2C(N)=O)cc1 (stereo not given),inactive
16,O=c1[nH]c2ccccc2n1Cc1ccc(Cl)cc1,inactive
17,CCCC(=O)Nc1ccc(NC(=O)c2cccs2)cn1,inactive
18,COc1ccc(NCc2cccnc2)cc1,inactive
19,COc1ccc(NCc2n[nH]c(=O)c3ccccc23)cc1,inactive
20,O=C(O)c1ccc2cccnc2c1O,inactive
21,COCCNc1nnc(SCC(=O)NNC(=O)c2ccc([N+](=O)[O-])cc2)s1,inactive

row,SMILES,"activity change, negative = inhibition"
1,O=[N+]([O-])c1ccc(-c2cn3nc(-c4ccccc4)c(-c4ccccc4)nc3n2)cc1,inactive
2,COc1ccc(-n2c(C)nc3cc(C(=O)O)ccc32)cc1,inactive
3,COc1ccc(-c2cn[nH]c2-c2ccc(O)cc2O)cc1OC,inactive
4,O=C(N/N=C/c1ccncc1)c1cc([N+](=O)[O-])cc([N+](=O)[O-])c1O,inactive
5,c1cncc(C2CC(c3cccs3)n3ncnc3N2)c1 (stereo not given),inactive
6,COc1nc(N/N=C/c2ccc(-c3ccccc3[N+](=O)[O-])o2)nc(N2CCOCC2)n1,inactive
7,COC(=O)c1ccccc1N=Nc1c(N)n[nH]c1N,inactive
8,COc1ccc(-c2csc(Nc3ccc(S(N)(=O)=O)cc3)n2)cc1OC,inactive
9,O=C1c2cccc3cccc(c23)C(=O)N1Cc1ccccc1,inactive
10,CC(=O)Nc1ccc(/C=C/c2nc(-c3ccccc3O)n[nH]2)cc1,inactive
11,CCN(CC)c1ccc(/C=N/N2CCN(c3ccccc3OC)CC2)cc1,inactive
12,O=C(Nc1nccs1)c1ccc(-c2ccc(Cl)cc2)o1,inactive
13,CCOc1ccccc1N=NC1C(=O)N(C(N)=S)N=C1C (stereo not given),inactive
14,O=C(O)c1cccc(NC2=C(Cl)C(=O)c3ccccc3C2=O)c1,inactive
15,Cc1ccc2c(c1)c(C1=NC(=S)NC1=O)c(O)n2C,inactive
16,CCn1c(O)c(N=NC(=O)CNC(=O)/C=C/c2ccco2)c2ccccc21,inactive
17,CCc1ccc(S(=O)(=O)/N=C2\C=C(Nc3ccc(C(=O)O)cc3)C(=O)c3ccccc32)cc1,inactive
18,Cc1cccc(C(=O)NNC(=O)c2csc(N3CCOCC3)n2)c1C,inactive
19,COc1cccc(CNC23CC4CC(CC(C4)C2)C3)c1OCc1ccccc1,inactive
20,Cc1c(Cl)cccc1NC(=O)C(=O)NNS(=O)(=O)c1ccc(F)cc1,inactive
21,COc1cc2c(cc1OC)[C@@H](Cc1ccc(OCCC#N)cc1)N(C)CC2,inactive
